Test results reported in US11214565B2, “Compound, compositions, and methods” (Denali Therapeutics Inc., priority 2015, dated 2022).
pIC50: −log10 of the molar value.

Target: LRRK2 G2019S enzyme (Homo sapiens (Human), UniProt Q5S007, G2019S)
Assay: LRRK2 G2019S TR-FRET biochemical kinase assay (LRRKtide substrate)
Conditions: 5 nM LRRK2, 134 μM ATP, 60 minute reaction, 23° C.
Method in brief: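 TR-FRET phospho-LRRKtide readout (2 nM antibody, 10 mM EDTA, 60 min) after a 60 min, 23 °C kinase reaction. The reaction used 134 μM ATP and 5 nM enzyme in pH 7.5 Tris/MgCl2/EGTA/DTT buffer, with compound and enzyme-substrate mix preincubated for 20 min beforehand.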

Sequence of LRRK2 G2019S enzyme (Q5S007 whole entry G2019S): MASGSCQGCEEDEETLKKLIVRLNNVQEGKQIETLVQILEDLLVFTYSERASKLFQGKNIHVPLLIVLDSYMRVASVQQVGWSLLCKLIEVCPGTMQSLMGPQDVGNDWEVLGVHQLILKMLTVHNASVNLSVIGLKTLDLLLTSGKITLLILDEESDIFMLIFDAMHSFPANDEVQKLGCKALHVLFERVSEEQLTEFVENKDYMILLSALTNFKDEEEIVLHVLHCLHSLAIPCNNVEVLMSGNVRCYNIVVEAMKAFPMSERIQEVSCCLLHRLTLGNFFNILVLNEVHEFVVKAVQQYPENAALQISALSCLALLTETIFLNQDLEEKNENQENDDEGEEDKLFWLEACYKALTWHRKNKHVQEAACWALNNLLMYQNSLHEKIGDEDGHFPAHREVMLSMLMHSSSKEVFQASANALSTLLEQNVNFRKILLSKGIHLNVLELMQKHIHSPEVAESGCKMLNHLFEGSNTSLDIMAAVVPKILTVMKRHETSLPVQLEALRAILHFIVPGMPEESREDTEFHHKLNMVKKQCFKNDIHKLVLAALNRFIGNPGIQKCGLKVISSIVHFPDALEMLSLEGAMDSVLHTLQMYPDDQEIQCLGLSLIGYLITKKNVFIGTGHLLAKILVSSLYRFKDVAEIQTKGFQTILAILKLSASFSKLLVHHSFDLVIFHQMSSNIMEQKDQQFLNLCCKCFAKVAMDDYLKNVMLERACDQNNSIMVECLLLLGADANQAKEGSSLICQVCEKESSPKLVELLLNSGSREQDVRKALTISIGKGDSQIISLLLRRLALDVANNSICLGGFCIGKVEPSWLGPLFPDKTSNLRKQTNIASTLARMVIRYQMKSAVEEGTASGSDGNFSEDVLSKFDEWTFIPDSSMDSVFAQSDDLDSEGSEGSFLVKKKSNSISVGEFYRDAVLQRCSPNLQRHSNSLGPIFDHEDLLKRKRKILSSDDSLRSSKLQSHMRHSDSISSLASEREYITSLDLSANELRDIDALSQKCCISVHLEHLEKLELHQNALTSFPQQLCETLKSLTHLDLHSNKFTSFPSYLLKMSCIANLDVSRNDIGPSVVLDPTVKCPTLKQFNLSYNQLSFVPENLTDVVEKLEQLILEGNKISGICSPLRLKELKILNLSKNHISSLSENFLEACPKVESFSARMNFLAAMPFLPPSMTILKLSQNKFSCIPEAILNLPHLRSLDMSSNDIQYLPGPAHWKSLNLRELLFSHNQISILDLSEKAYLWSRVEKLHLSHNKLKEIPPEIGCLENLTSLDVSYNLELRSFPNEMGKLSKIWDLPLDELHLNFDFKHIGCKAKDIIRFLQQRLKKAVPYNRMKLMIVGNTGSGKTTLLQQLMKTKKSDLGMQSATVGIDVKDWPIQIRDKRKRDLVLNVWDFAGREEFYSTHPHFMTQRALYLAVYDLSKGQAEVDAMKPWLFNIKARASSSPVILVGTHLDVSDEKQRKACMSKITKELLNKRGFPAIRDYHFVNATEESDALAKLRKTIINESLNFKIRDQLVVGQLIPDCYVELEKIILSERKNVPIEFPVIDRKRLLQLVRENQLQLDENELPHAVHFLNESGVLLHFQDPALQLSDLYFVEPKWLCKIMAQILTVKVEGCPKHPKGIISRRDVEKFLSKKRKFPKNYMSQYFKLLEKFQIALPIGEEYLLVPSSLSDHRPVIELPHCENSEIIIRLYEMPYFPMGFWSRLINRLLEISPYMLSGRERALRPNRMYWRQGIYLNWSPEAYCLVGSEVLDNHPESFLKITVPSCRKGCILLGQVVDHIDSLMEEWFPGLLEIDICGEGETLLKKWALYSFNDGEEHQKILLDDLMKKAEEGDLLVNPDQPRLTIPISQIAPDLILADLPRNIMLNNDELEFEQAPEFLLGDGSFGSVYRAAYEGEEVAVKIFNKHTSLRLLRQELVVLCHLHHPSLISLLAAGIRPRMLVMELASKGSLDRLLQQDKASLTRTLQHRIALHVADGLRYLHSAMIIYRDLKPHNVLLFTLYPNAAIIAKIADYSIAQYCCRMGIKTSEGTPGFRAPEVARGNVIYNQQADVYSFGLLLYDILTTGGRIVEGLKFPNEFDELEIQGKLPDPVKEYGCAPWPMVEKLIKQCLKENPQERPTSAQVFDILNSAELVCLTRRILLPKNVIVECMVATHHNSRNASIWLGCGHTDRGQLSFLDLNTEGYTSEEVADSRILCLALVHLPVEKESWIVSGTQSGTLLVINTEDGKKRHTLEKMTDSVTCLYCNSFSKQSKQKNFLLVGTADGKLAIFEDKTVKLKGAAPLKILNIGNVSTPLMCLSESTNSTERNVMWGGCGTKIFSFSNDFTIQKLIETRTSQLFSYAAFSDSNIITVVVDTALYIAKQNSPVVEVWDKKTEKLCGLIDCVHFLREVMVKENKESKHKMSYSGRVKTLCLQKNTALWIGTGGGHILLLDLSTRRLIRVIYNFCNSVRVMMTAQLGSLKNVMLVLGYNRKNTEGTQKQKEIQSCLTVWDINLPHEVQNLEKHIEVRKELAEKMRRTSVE

Row | SMILES | pIC50 (Table A-2) | pIC50 (Table D-4) | further results
1 | FC(F)(F)c1cnc(Nc2cnn([C@H]3CN(C4COC4)CCC3(F)F)c2Cl)nc1C1CC1 (single isomer, unassigned) [Compound A-64, N-(5-chloro-1-(4,4-difluoro-1-(oxetan-3-yl)piperidin-3-yl)-1H-pyrazol-4-yl)-4-cyclopropyl-5-(trifluoromethyl)pyrimidin-2-amine] | 7.22 to 7.52 |  | 
2 | Cc1nn([C@@H]2CCc3cn[nH]c32)cc1Nc1ncc(C(F)(F)F)c(C2CC2)n1 [Compounds A-89] | > 7.52 |  | 
3 | Cc1c(Nc2ncc(C(F)(F)F)c(C3CC3)n2)cnn1CCF [Compound A-30, 4-cyclopropyl-N-(1-(2-fluoroethyl)-5-methyl-1H-pyrazol-4-yl)-5-(trifluoromethyl)pyrimidin-2-amine] | > 7.52 |  | 
4 | Cc1c(Nc2nc(C3CC3)c3c(C#N)c[nH]c3n2)cnn1C(CF)CF [Compound C-11, 4-cyclopropyl-2-[[1-[2-fluoro-1-(fluoromethyl)ethyl]-5-methyl-pyrazol-4-yl]amino]-7H-pyrrolo[2,3-d]pyrimidine-5-carbonitrile] |  |  | pIC50 (Table C-2): > 7.30
5 | Cc1c(Nc2ncc(C(F)(F)F)c(C3CC3)n2)cnn1[C@H]1CCc2cn[nH]c21 [Compounds A-92] | > 7.52 |  | 
6 | CCNc1nc(Nc2cnn([C@H]3C[C@H](n4nccn4)C3)c2C)ncc1C(F)(F)F [Compound D-58] |  | > 7.52 | 
7 | Cc1nn([C@H]2CCc3cn[nH]c32)cc1Nc1ncc(C(F)(F)F)c(C2CC2)n1 [Compounds A-90] | > 7.52 |  | 
8 | Cc1nn(C2CC3CC3C2)cc1Nc1nc(C2CC2)c2nc[nH]c2n1 (stereo not shown) [Compound C-46] |  |  | pIC50 (Table C-2): > 7.30
9 | Cc1nn(C(C)(C)c2cn(C)nn2)cc1Nc1ncc(C(F)(F)F)c(C2CC2)n1 [Compound A-39, 4-cyclopropyl-N-(3-methyl-1-(2-(1-methyl-1H-1,2,3-triazol-4-yl)propan-2-yl)-1H-pyrazol-4-yl)-5-(trifluoromethyl)pyrimidin-2-amine] | > 7.52 |  | 
10 | CNc1nc(Nc2cn(C(C)COC(F)F)nc2C)ncc1C(F)(F)F [Compound D-21, N2-[1-[2-(difluoromethoxy)-1-methyl-ethyl]-3-methyl-pyrazol-4-yl]-N4-methyl-5-(trifluoromethyl)pyrimidine-2,4-diamine] |  | 7.22 to 7.52 | 
11 | CNc1nc(Nc2cnn([C@H]3CCC(n4nccn4)C3)c2C)ncc1C(F)(F)F (stereo partly drawn) [Compounds D-134] |  | > 7.52 | 
12 | Cc1nn(C(C)(C)c2ncn(C)n2)cc1Nc1nc(C2CC2)c2c(C#N)c[nH]c2n1 [Compound C-26] |  |  | pIC50 (Table C-2): > 7.30
13 | CCNc1nc(Nc2cn(C(C)(C)C#N)nc2C)nc2[nH]cc(Cl)c12 [Compound B-2, 2-[4-[[5-chloro-4-(ethylamino)-7H-pyrrolo[2,3-d]pyrimidin-2-yl]amino]-3-methyl-pyrazol-1-yl]-2-methyl-propanenitrile] |  |  | pIC50 (Table B-2): ≥ 9.00
14 | Cc1nn([C@@H]2CCNC2=O)cc1Nc1ncc(C(F)(F)F)c(C2CC2)n1 [Compounds A-85] | > 7.52 |  | 
15 | CNc1nc(Nc2cnn(C3(COC(F)F)CC3)c2C)ncc1C(F)(F)F [Compound D-157] |  | > 7.52 | 
16 | CNc1nc(Nc2cn(C3CCC(n4ccnn4)C3)nc2C)ncc1C(F)(F)F [Compound D-69] |  | > 7.52 | 
17 | CNc1nc(Nc2cn(C3(c4ncnn4C)CCC3)nc2C)ncc1C(F)(F)F [Compound D-72] |  | < 7.22 | 
18 | CNc1nc(Nc2cnn(C3CCC(n4nccn4)C3)c2C)ncc1C(F)(F)F [Compounds D-107] |  | > 7.52 | 
19 | CNc1nc(Nc2cn(CC(C)OC(F)F)nc2C)ncc1C(F)(F)F [Compound D-18] |  | < 7.22 | 
20 | Cc1c(Nc2ncc(C(F)(F)F)c(NC3CC3)n2)cnn1[C@](C)(C#N)CF [Compounds D-201] |  | > 7.52 | 
21 | CNc1nc(Nc2cn(C3CCn4nccc43)nc2C)ncc1C(F)(F)F [Compound D-36, N^2-(1-(5,6-dihydro-4H-pyrrolo[1,2-b]pyrazol-4-yl)-3-methyl-1H-pyrazol-4-yl)-N^4-methyl-5-(trifluoromethyl)pyrimidine-2,4-diamine] |  | < 7.22 | 
22 | Cc1nn([C@@]2(C)CCNC2=O)cc1Nc1ncc(C(F)(F)F)c(C2CC2)n1 [Compounds A-94] | > 7.52 |  | 
23 | CCNc1nc(Nc2cn(C(F)(F)C(N)=O)nc2Cl)ncc1C(F)(F)F [Compound D-164] |  | > 7.52 | 
24 | CCNc1nc(Nc2cnn([C@H]3C[C@@H](n4cccn4)C3)c2C)ncc1C(F)(F)F [Compound D-93] |  | > 7.52 | 
25 | CCNc1nc(Nc2cn([C@H]3CCc4ncsc43)nc2C)ncc1C(F)(F)F [Compounds D-86] |  | > 7.52 | 

Row | SMILES | pIC50 (Table A-2) | pIC50 (Table D-4) | further results
26 | CNc1nc(Nc2cnn([C@H]3C[C@H](CC#N)C3)c2C)ncc1C(F)(F)F [Compound D-29, trans-2-[3-[4-[[5-(difluoromethyl-fluoranyl)-4-(methylamino)pyrimidin-2-yl]amino]-5-methyl-pyrazol-1-yl]cyclobutyl]acetonitrile] |  | > 7.52 | 
27 | Cc1nn(C2(c3ncnn3C)CCC2)cc1Nc1ncc(C(F)(F)F)c(C2CC2)n1 [Compound A-42, 4-cyclopropyl-N-[3-methyl-1-[1-(2-methyl-1,2,4-triazol-3-yl)cyclobutyl]pyrazol-4-yl]-5-(trifluoromethyl)pyrimidin-2-amine] | < 7.22 |  | 
28 | Cc1nn(C(F)(F)c2ncn(C)n2)cc1Nc1ncc(C(F)(F)F)c(C2CC2)n1 [Compound A-75, 4-cyclopropyl-N-[1-[difluoro(1-methyl-1H-1,2,4-triazol-3-yl)methyl]-3-methyl-pyrazol-4-yl]-5-(trifluoromethyl)pyrimidin-2-amine] | > 7.52 |  | 
29 | Cc1c(Nc2ncc(C(F)(F)F)c(C3CC3)n2)cnn1CC(C)(C)O [Compound A-18, 1-[4-[[4-cyclopropyl-5-(trifluoromethyl)pyrimidin-2-yl]amino]-5-methyl-pyrazol-1-yl]-2-methyl-propan-2-ol] | 7.22 to 7.52 |  | 
30 | CCNc1nc(Nc2cnn([C@H]3C[C@H](N4CCCC4=O)C3)c2C)ncc1C(F)(F)F [Compound D-103] |  | > 7.52 | 
31 | CNc1nc(Nc2cn([C@H]3C[C@H](CC#N)C3)nc2C)ncc1C(F)(F)F [Compound D-30, trans-2-[3-[4-[[5-(difluoromethyl-fluoranyl)-4-(methylamino)pyrimidin-2-yl]amino]-3-methyl-pyrazol-1-yl]cyclobutyl]acetonitrile] |  | > 7.52 | 
32 | Cc1nn(C(CF)CF)cc1Nc1nc(C2CC2)c2nc[nH]c2n1 [Compound C-1, 6-cyclopropyl-N-[1-[2-fluoro-1-(fluoromethyl)ethyl]-3-methyl-pyrazol-4-yl]-9H-purin-2-amine] |  |  | pIC50 (Table C-2): > 7.30
33 | Cc1nn(C(C)(C)c2ccn(C)n2)cc1Nc1ncc(C(F)(F)F)c(C2CC2)n1 [Compound A-23, 4-cyclopropyl-N-(3-methyl-1-(2-(1-methyl-1H-pyrazol-3-yl)propan-2-yl)-1H-pyrazol-4-yl)-5-(trifluoromethyl)pyrimidin-2-amine] | > 7.52 |  | 
34 | CNc1nc(Nc2cnn([C@H]3C[C@@H](S(C)(=O)=O)C3)c2C)ncc1C(F)(F)F [Compound D-50, cis-N4-methyl-N2-[5-methyl-1-(3-methylsulfonylcyclobutyl)pyrazol-4-yl]-5-(trifluoromethyl)pyrimidine-2,4-diamine] |  | > 7.52 | 
35 | Cc1nn(C2CC2)cc1Nc1nc(C2CC2)c2nc[nH]c2n1 [Compound C-50] |  |  | pIC50 (Table C-2): > 7.30
36 | CCOc1nc(Nc2cn(C3CCn4ccnc43)nc2C)ncc1C(F)(F)F [Compound D-68] |  | < 7.22 | 
37 | CNc1nc(Nc2cn(C3(c4ncn(C)n4)CCC3)nc2C)ncc1C(F)(F)F [Compound D-136] |  | > 7.52 | 
38 | Cc1nn(C(F)F)cc1Nc1nc(C2CC2)c2c(C#N)c[nH]c2n1 [Compound C-40] |  |  | pIC50 (Table C-2): > 7.30
39 | Cc1nn(C(C)(C)C#N)cc1Nc1nc(C2CC2)c2c(C(F)(F)F)c[nH]c2n1 [Compound C-42] |  |  | pIC50 (Table C-2): > 7.30
40 | CCNc1nc(Nc2cnn([C@H]3C[C@H](OC(F)F)C3)c2C)ncc1C(F)(F)F [Compound D-116] |  | > 7.52 | 
41 | Cc1nn(C(C)(C)c2cnn(C)n2)cc1Nc1ncc(C(F)(F)F)c(C2CC2)n1 [Compound A-40, 4-cyclopropyl-N-(3-methyl-1-(2-(2-methyl-2H-1,2,3-triazol-4-yl)propan-2-yl)-1H-pyrazol-4-yl)-5-(trifluoromethyl)pyrimidin-2-amine] | > 7.52 |  | 
42 | CCN1CC(n2cc(Nc3ncc(C(F)(F)F)c(C4CC4)n3)c(C)n2)CCC1=O (single isomer, unassigned) [Compound A-61] | 7.22 to 7.52 |  | 
43 | CCNc1nc(Nc2cnn([C@H]3C[C@@H](N4CC[C@H](F)C4)C3)c2C)ncc1C(F)(F)F [Compound D-196] |  | > 7.52 | 
44 | CCNc1nc(Nc2cn(C(C)(C#N)CF)nc2C)ncc1C(F)(F)F [Compound D-203] |  | > 7.52 | 
45 | Cc1nn(C(F)(F)c2nc[nH]n2)cc1Nc1ncc(C(F)(F)F)c(C2CC2)n1 [Compound A-77, 4-cyclopropyl-N-(1-(difluoro(1H-1,2,4-triazol-3-yl)methyl)-3-methyl-1H-pyrazol-4-yl)-5-(trifluoromethyl)pyrimidin-2-amine] | > 7.52 |  | 
46 | CNc1nc(Nc2cnn(CCOC(F)F)c2Cl)ncc1C(F)(F)F [Compound D-11, N2-[5-chloro-1-[2-(difluoromethoxy)ethyl]pyrazol-4-yl]-N4-methyl-5-(trifluoromethyl)pyrimidine-2,4-diamine] |  | > 7.52 | 
47 | CNc1nc(Nc2cn(C[C@@H](C)OC(F)F)nc2C)ncc1C(F)(F)F [Compound D-20, N2-[1-[(2R)-2-(difluoromethoxy)propyl]-3-methyl-pyrazol-4-yl]-N4-methyl-5-(trifluoromethyl)pyrimidine-2,4-diamine] |  | < 7.22 | 
48 | CNc1nc(Nc2cnn([C@H]3C[C@H](n4cccn4)C3)c2C)ncc1Br [Compound D-111] |  | > 7.52 | 
49 | Cc1nn(C(C)(C)C#N)cc1Nc1ncc(C(F)(F)F)c(C2=CCCC2)n1 [Compound A-4, 2-[4-[[4-(cyclopenten-1-yl)-5-(trifluoromethyl)pyrimidin-2-yl]amino]-3-methyl-pyrazol-1-yl]-2-methyl-propanenitrile] | 7.22 to 7.52 |  | 
